Test results: patent US12480950B2, “AKT-specific capture agents, compositions, and methods of using and making” (California Institute of Technology, priority 2011, dated 2025)
Where two headings read alike, the source gives them in different places. Bridge positions count the residues as written; N and C are the ends. Square brackets hold non-standard residues; d marks the D form. Ends that are not written are not given here. I, II: the chains in the order shown. dPra = C#CC[C@@H](N)C(=O)O; C8N3 = not defined here

Assays:
GSK3β = target: T1, GSK3β (Homo sapiens, UniProt P49841); assay: Specificity ELISA, immobilized ligand probed with His-tagged kinases; settings: A450 normalized to Akt1-S473E binding
T1 construct: a set of His-tagged active protein kinase domains from the AGC family; purchased Invitrogen
Protocol: (§1) Biotinylated ligand was immobilized on Streptavidin plates and probed with 25 nM His-tagged kinase followed by anti-Histag antibody-HRP conjugate. Values represent the mean A450 obtained from three experiments after normalization to Akt1-S473E binding. The error bars show the standard error.
(§2) The specificity of the anchor ligand, biligand, and triligand developed in Example 1 was analyzed using a battery of protein kinases. […] Akt1-S473E was expressed and purified as described above.
(§3) The relative affinity of each kinase was determined by probing with an anti-His6 antibody and normalizing the response to Akt1-S473E. All proteins were diluted in Akt blocking buffer to a final concentration of 24 nM prior to use. Ligands were diluted in Akt blocking buffer to a final concentration of 2.5 μM prior to use. 100 μL of each ligand (250 pmol) was added to each well of a HBC streptavidin-coated 96-well plate. The ligands were bound at 4° C. for 1 hour followed by addition of D-biotin to a final concentration of 500 μM. After 10 minutes at 4° C., the wells were washed three times with Akt blocking buffer and blocked overnight in 5% non-fat milk.
(§4) The wells were washed three times in Akt blocking buffer and 50 μL of active protein was applied to each well. After binding for 120 minutes at 4° C., the wells were washed three times in Akt blocking buffer to remove unbound protein. 50 μL of horseradish peroxidase-conjugated Anti-His6 antibody was added at a dilution of 1:100 (His Probe (H-3) HRP conjugate, Santa Cruz Biotechnology). The antibody-HRP conjugate was incubated for 60 minutes and the wells were washed 3 times in TBST and once in TBS. 50 μL of peroxidase substrate (KPL) was added and the resulting color change was quenched with 50 μL 1 M H2SO4. The A450 measured on a 96-well plate reader. […] The mean value for the triplicates was calculated and plotted and the error bars were generated from the standard error of the mean (GraphPad Prism).

Akt1-S473E = settings: SPR, from kinetic parameters, 10° C., Akt1-S473E 9000 nM to 1 nM
Protocol: For this experiment, the biotinylated triligand was immobilized on a streptavidin-derivatized biacore chip and probed with Akt-S473E at concentrations ranging from 9 μM to 1 nM.
Triligand binding affinity was further analyzed by SPR using a Biacore T100. A Streptavidin Chip (Series S, G.E. Healthcare) was conditioned as recommended by the manufacturer. Biotinylated ligand was diluted into HBSP+ Buffer (G.E. Healthcare) to a final concentration of 100 nM and 137 RU was immobilized on the chip. Akt1-S473E was prepared as described previously and subjected to buffer exchange into HBSP+ using Zeba Desalting Columns (Pierce). Serial dilutions of the enzyme were made in HBSP+ buffer (9000 nM to 1 nM) and flowed over the chip at 50 μL/minute. Binding and dissociation were carried out at 10° C. with a contact time of 360 seconds, a dissociation time of 400 seconds, and a stabilization time of 200 seconds. The response was corrected using an unmodified reference flow cell. Kinetic constants were obtained from the sensograms and used to calculate the dissociation constant.

Akt1 = assay: Specificity ELISA, immobilized ligand probed with His-tagged kinases; set-up: species or system H. sapiens; settings: A450 normalized to Akt1-S473E binding; kinase panel
Protocol: as §1, §2, §3, §4

MEK1 = MEK1 (Homo sapiens, UniProt Q02750); settings: A450 normalized to Akt1-S473E binding
Protocol: as §1, §2
The relative affinity of each kinase was determined by probing with an anti-His6 antibody and normalizing the response to Akt1-S473E. All proteins were diluted in Akt blocking buffer to a final concentration of 24 nM prior to use. Ligands were diluted in Akt blocking buffer to a final concentration of 2.5 μM prior to use. 100 μL of each ligand (250 pmol) was added to each well of a HBC streptavidin-coated 96-well plate. The ligands were bound at 4° C. for 1 hour followed by addition of D-biotin to a final concentration of 500 μM. […]
The wells were washed three times in Akt blocking buffer and 50 μL of active protein was applied to each well. […] The A450 measured on a 96-well plate reader. […] The mean value for the triplicates was calculated and plotted and the error bars were generated from the standard error of the mean (GraphPad Prism).

Akt1-S473E-T308P = target: Akt1-S473E-T308P
From the text: FIG. 22A: Velocity vs. [Peptide substrate] with varying concentration of inhibitory triligand. FIG. 22B: Velocity vs. [ATP] with varying concentration of inhibitory triligand.
FIGS. 23A-23D show determination of Ki′ and inhibition mode for triligand with respect to peptide substrate. FIG. 23A: Plot of 1/KM(app) vs. [Triligand]. KM(app) were obtained from nonlinear regression analysis of velocity vs. [Peptide] curves obtained with varied concentrations of triligand (Graphpad). The error bars represent the standard error of KM(app) by nonlinear regression. 95% confidence intervals are shown as dotted lines. […] FIG. 23B: Plot of 1/Vmax(app) vs. [Triligand]. Values for Vmax(app) and standard error were obtained by nonlinear regression as described above. […] FIG. 23C: Dixon plot of 1/v vs. [Triligand] at various [Peptide]. Data from low peptide concentrations were removed to account for possible substrate depletion. […] FIG. 23D: Cornish-Bowden plot of [Peptide]/v vs. [Triligand] at various [Peptide]. The intersection of the lines gives the −Ki′.
FIG. 24A: Plot of 1/KM(app) vs. [Triligand]. KM(app) were obtained from nonlinear regression analysis of velocity vs. [ATP] curves obtained with varied concentrations of triligand (Graphpad). The error bars represent the standard error of KM(app) by nonlinear regression. […] FIG. 24B: Plot of 1/Vmax(app) vs. [Triligand]. […] FIG. 24C: Dixon plot of 1/v vs. [Triligand] at various [ATP]. Data from low ATP concentrations were removed due high counting error resulting from low counts per minute (cpm).
Two standard enzyme kinetic assays were carried out to determine the mode of Akt1 inhibition by the triligand (Segel 1975). For these assays, the kinase activity is measured under varying substrate and triligand concentrations. The resulting data can be interpreted so that the nature of the competition between the triligand and the substrate for the relevant kinase binding site is determined. For example, if the triligand and ATP competed for the same binding pocket, the maximum velocity (Vmax) of the kinase would be unchanged while the Michaelis constant (KM) would increase. The plots can also be used as a means of determining the inhibition constant (Ki) of the triligand.
Akt-S473E-T308P was prepared by incubating 75 μg Akt-S473E with 1 μg PDK1 (Sigma) in the presence of 500 μM ATP in 1× reaction buffer (25 mM Tris-Cl (pH=7.5), 10 mM MgCl2, 2 mM DTT, 1× protease inhibitors (Roche), 1× phosphatase inhibitors (Roche)). The phosphorylation reaction proceeded for 40 minutes at room temperature followed by addition of 25 mM EDTA. The quenched reaction was added to 40 μL Anti-FLAG M2 agarose (Sigma) and allowed to bind for 2 hr at 4° C. The resin was washed in FLAG Wash Buffer (20 mM HEPES (pH=7.4), 150 mM NaCl, 1× protease inhibitors (Roche), 1× phosphatase inhibitors (Roche)) and the Akt1-S473E-T308P eluted with FLAG Elution Buffer (FLAG wash buffer+0.15 mg/mL 3×FLAG peptide) for 30 minutes at room temperature. The concentration of protein was determined by Bradford assay.

Akt-S473E [1] = settings: [2H10] antibody directed toward the C-terminus
From the text: Immobilized anchor, biligand, and triligand were probed with varying concentrations of […]. Binding was detected by an anti-Akt1 monoclonal antibody ([2H10]) followed by an anti-mouse secondary antibody-HRP conjugate. The fraction bound was normalized and plotted against the concentration of Akt-S473E on a log scale.
The C-terminus is effectively on the “backside” of the kinase domain, opposite the active site.

Akt [2] = assay: Immunoprecipitation of Akt from OVCAR3 cell lysates with immobilized ligands; assay type: binding; settings: EGF and insulin induced or control, Western blot with pan-Akt antibody
Protocol: A representative 12% gel stained with Coomassie and imaged. Lane 1: Lysate, Lane 2: Anchor resin, Lane 3: Biligand resin, Lane 4: Triligand resin, Lane 5: 5G3 mAb resin.
After 18 hours at 4° C., resins were washed exhaustively, eluted with SDS-PAGE sample buffer, and analyzed by Western blotting. 1. Blank resin, 2. Anchor, 3. Biligand, 4. Triligand, 5. [5G3] mAb, L. lysate.
For the IP experiments, the anchor, biligand, and triligands were immobilized on streptavidin-agarose, and each resin was panned with OVCAR3 cell lysates obtained from untreated cells or cells stimulated with a combination of epidermal growth factor (EGF) and insulin.
OVCAR3 cells were grown in RPMI-1640 media containing 10% fetal bovine serum, penicillin, and streptomycin. Passage 4 cells were grown to ˜60% confluence and treated with insulin and EGF at final concentration of 10 μg/mL and 20 ng/mL respectively (induced) or mock treated (control). Cells were grown for an additional 24 hours and then lysed with lysis buffer (10 mM Tris-Cl (pH=7.5), 100 mM NaCl, 1% (v/v) Triton X-100, 0.1% SDS (w/v), 0.5% deoxycholate, 1 mM DTT, 1 mM EDTA, 1× PhosStop phosphatase inhibitors (Roche), 1× Complete protease inhibitors (Roche). Cell lysate protein concentrations were determined by Bradford assays. […]

Akt-S473E [3] = assay: ELISA with immobilized Akt-S473E, relative affinity of biotinylated ligands; assay type: binding, H. sapiens; settings: triligand versus biligand
Protocol: Akt-S473E was immobilized on Ni-NTA plates and incubated with varying concentrations of biotinylated peptide. All values were normalized to the binding observed at saturation.
The affinity of the anchor ligand, biligand, and triligand developed in Example 1 was determined by ELISA with immobilized Akt-S473E.
3 μg of Akt-S473E was added to each well in a HisSorb Ni-NTA plate (Qiagen) in 50 μL of ELISA blocking buffer (25 mM Tris-Cl (pH=7.5), 150 mM NaCl, 10 mM MgCl2, 0.1% (v/v) Tween-20, and 4 mg/mL BSA). 50 μL of imidazole blocking buffer (25 mM Tris-Cl (pH=7.5), 150 mM NaCl, 10 mM MgCl2, 0.1% (v/v) Tween-20, 100 mM imidazole, and 4 mg/mL BSA) was added to the control wells. After 18 hours at 4° C., the wells were washed with ELISA blocking buffer and 50 μL of each ligand dilution was added in ELISA blocking buffer. The ligands were bound at 4° C. for 120 minutes followed by three washed in ELISA blocking buffer. 50 μL of horseradish peroxidase-conjugated streptavidin (SA-HRP, Thermo) was added (1:5000 dilution in ELISA blocking buffer) and incubated for 70 minutes at 4° C. […] 50 μL of peroxidase substrate (KPL) was added to generate the final signal which was quenched in 1 M H2SO4 and quantitated on a 96-well plate reader at X=450 nm. The Net A450 was calculated by subtracting the A450 of each blank well (No Akt-S473E) from the experimental well. […]

Akt2 = target: T2, Akt2 (Homo sapiens, UniProt P31751); assay: Akt2 kinase activity assay, p-GSK-3a/b Western blot; assay type: biochemical; settings: p-GSK-3a/b abundance, active Akt2
T2 construct: purchased Abcam
From the text: PCC compositions, developed using the epitope targeting strategy, make non-traditional enzyme inhibitors. If Akt2 is activated by phosphorylation of Ser474 then, in that state, it phosphorylates GSK-3a/b. If it is further activated via a steric effect, then it will produce more p-GSK-3a/b. If that same Akt2 is inhibited, then it will produce less p-GSK-3a/b. Thus, the signature of Akt inhibition (or activation) is read out as p-GSK-3a/b abundance, relative to the DMSO control. Assays are shown at right in the form of Western Blots. The DMSO column gives the baseline level. The n-terminal triligand the biligand, the dimer of the n-terminal triligand, and the commercial monoclonal antibody all activate Akt relative to DMSO. The c-terminal triligand inhibits Akt. The ‘hi’ and ‘low’ blots correspond to long and short development times, respectively. The Akt2 protein used for the inhibition assay is active Akt2 that is phosphorylated at Thr308, and is at least partially phosphorylated at Ser474, since the antibody for pSer474 detects the pSer474.

Akt [4] = assay: Immunofluorescent imaging of Akt in fixed OVCAR3 cells; assay type: cell-based; settings: unstimulated or EGF-treated
Protocol: OVCAR3 cells were grown on polylysine coated coverslips and treated with either 500 ng/mL EGF (Sigma) or vehicle control for 10 minutes. Cells were then fixed with 10% formaldehyde for 15 min at 37° C., washed with PBS, permeablized by incubating with 0.1% Triton X-100 for 10 min at room temperature, and blocked with 5% goat serum. Permeabilized cells were stained with either a fluorescein-conjugated Pan Akt antibody (R&D Systems IC2055F, 10 μg/mL) overnight or 1 μM fluorescein conjugated biligand for 1 hour. Images were acquired using a Zeiss Pascal 5 Laser Scanning Microscope (Caltech Biological Imaging Center) and surface plots were generated with ImageJ software (NIH). For this assay, Akt was expected to locate to the cell membrane following stimulation of a receptor tyrosine kinase such as epidermal growth factor receptor (EGFR) by its ligand (EGF). Images of unstimulated and stimulated cells clearly reveal that this was the case (FIG. 18).

Akt [5] = target: T3, Akt (Homo sapiens, UniProt P31751); assay: Detection of Akt from OVCAR3 cell lysate by anti-Ser474 Akt2 capture agents; assay type: binding
T3 construct: endogenous in cells; host or cells: OVCAR3
From the text: The characteristics of this best ligand were improved through use of sequential in situ click chemistry, as described in Capture Agents and Related Compositions, Methods, and Systems CIT 5164-P; and Akt-Specific Capture Agents, Compositions, and Methods of Using and Making. CIT 5917-P, Agnew, et al., Angew. Chem. 121, p 5044-5048 (2009), and Millward, et al., J. Am. Chem. Soc. 133, 1820 (2011), incorporated herein by reference in their entireties. For these steps, the capture agent that was identified in Steps (1)-(4) was improved into a biligand (FIG. 36b), and then a triligand (FIG. 36c).

T3 sequence (P31751 whole entry): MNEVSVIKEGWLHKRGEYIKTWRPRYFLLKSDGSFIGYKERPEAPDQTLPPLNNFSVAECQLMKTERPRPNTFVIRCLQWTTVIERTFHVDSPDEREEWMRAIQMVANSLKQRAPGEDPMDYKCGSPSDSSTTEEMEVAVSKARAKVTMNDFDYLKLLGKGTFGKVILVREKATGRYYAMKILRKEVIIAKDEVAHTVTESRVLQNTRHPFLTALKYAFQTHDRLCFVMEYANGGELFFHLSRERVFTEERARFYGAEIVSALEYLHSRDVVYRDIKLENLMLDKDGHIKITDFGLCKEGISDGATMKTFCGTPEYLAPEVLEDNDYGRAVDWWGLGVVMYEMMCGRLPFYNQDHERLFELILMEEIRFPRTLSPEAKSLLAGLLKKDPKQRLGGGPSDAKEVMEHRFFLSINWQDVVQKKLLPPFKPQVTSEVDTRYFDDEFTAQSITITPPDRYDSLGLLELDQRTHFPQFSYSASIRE
T2 sequence (P31751 whole entry, species assumed): as the sequence (P31751 whole entry) above
T1 sequence (P49841 56-340 limits assumed, species assumed): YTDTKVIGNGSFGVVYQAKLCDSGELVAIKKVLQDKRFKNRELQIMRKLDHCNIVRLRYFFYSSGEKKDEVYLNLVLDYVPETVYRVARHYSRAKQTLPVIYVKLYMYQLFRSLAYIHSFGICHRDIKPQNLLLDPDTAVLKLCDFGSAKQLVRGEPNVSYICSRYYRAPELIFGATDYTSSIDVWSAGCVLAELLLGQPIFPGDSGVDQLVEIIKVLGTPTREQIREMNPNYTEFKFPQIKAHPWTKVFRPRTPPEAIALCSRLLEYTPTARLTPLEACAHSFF
MEK1, sequence (Q02750 68-361 limits assumed, species assumed): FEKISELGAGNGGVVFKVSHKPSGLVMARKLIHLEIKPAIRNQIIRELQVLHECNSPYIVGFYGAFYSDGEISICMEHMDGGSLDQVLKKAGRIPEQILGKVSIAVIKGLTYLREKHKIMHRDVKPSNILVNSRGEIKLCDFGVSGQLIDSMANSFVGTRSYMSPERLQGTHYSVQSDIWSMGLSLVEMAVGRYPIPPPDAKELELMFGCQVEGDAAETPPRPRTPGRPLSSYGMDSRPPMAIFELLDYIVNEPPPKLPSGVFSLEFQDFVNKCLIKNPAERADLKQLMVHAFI

In the case of CCC(C)[C@H](NC(=O)[C@H](CCCNC(=N)N)NC(=O)[C@H](CCC(=O)O)NC(=O)[C@H](Cc1cnc[nH]1)NC(=O)[C@H](CCCNC(=N)N)NC(=O)C(CCCCCCCCn1cc(CCCC(=O)NC(CCCCCCCCn2cc(C[C@H](NC(C)=O)C(=O)N[C@@H](Cc3ccccc3)C(=O)N[C@@H](Cc3c[nH]c4ccccc34)C(=O)N[C@@H](Cc3ccccc3)C(=O)N[C@@H](CC(C)C)C(=O)NC(CCCNC(=N)N)C(=O)NCC(N)=O)nn2)C(=O)N[C@H](C(=O)N[C@@H](Cc2ccccc2)C(=O)N[C@@H](Cc2ccc(O)cc2)C(=O)N[C@@H](CCCNC(=N)N)C(=O)N[C@@H](CC(C)C)C(=O)NCC(=O)N[C@@H](Cc2ccc(O)cc2)C(=O)NCCNC(=O)CCCCC2SCC3NC(=O)NC32)C(C)C)nn1)NC(C)=O)C(N)=O (some centres unmarked) [triligand], the “binding to GSK3β” value (GSK3β) is reported as “significantly reduced”, the Kd (Akt1-S473E) is reported as 0.2 µM and the “specificity / selectivity for Akt1” value (Akt1) is reported as “selectivity for Akt1 is clearly enhanced”. For the same compound, the “off-target binding to MEK1” value (MEK1) was “completely eliminated”, the Ki (Akt1-S473E-T308P; V vs. [ATP], variable [Triligand], Dixon plot, mean ± standard deviation) was 4 µM and the Ki (Akt1-S473E-T308P; V vs. [Peptide], variable [Triligand], Dixon plot, mean ± standard deviation) was 2.6 µM. For the same compound, the Ki (Akt1-S473E-T308P; read-out: X-intercept of 1/Vmax(app) vs. [Triligand], varied ATP, wide error range based on the 95% CI) was 5.8 µM, the Ki (Akt1-S473E-T308P; read-out: X-intercept of 1/Vmax(app) vs. [Triligand], varied peptide substrate) was 1.7 µM and the “X-intercept (−Ki′) of 1/KM(app) vs. [Triligand]” value (Akt1-S473E-T308P; varied peptide substrate) was 3.6 µM. For the same compound, the Inhibition mode (Akt1-S473E-T308P; with respect to ATP) was “Noncompetitive”, the Inhibition mode (Akt1-S473E-T308P; with respect to peptide substrate) was “Uncompetitive” and the “overlap of binding site with anti-Akt1 antibody” value (Akt-S473E [1]) was “may partially overlap”. The “immunoprecipitation of Akt” value (Akt [2]) was “somewhat increased immunoprecipitation of Akt relative to the biligand in induced cell lysates but not in the non-induced control cell lysate” and the affinity gain (Akt-S473E [3]) was 2-3 fold.

For “dimer of the n-terminal triligand: dimerized n-terminal triligand targeted against Ser474 of Akt2 (FIG. 36E) (peptide 1 [dPra][dW][dK][dV][dK][dL]; peptide 2 FYGNH; peptide 3 YYRFG; numbers in words are those of the source; also: dimer of triligand, chains 2 and 3 stereochemistry not given here)”, the “effect on Akt kinase activity relative to DMSO” value (Akt2) was “activate Akt”.

With “fluorescein-conjugated biligand: biligand with fluorescein derivative on the amino terminus of the secondary peptide (FIG. 17) (chain 1 C8N3-VFYRLGY-NH2; chain 2 FWFLRG-NH2; triazole I:N-II:N; not fully specified (N-terminus); reading uncertain; also: triazole linkage between chains, fluorescein on amino terminus of secondary peptide)” the “imaging of Akt localisation” value (Akt [4]) was “distinguishes cytoplasmic or membrane-bound AKT”.

“monoligand: peptide wkvkl (SEQ ID NO:4) coupled to Ac2-Tz4-PEG2-Biotin; targeted against Ser474 of Akt2 ([dW][dK][dV][dK][dL]-NH2; not fully specified (N-terminus); printed as wkvkl; also: coupled to Ac2-Tz4-PEG2-Biotin)” was tested, and the “detection of Akt from cell lysate” value (Akt [5]) was “able to detect Akt from cell lysate”.
